Where “and” joins values, the source holds several entries; their conditions need not be identical. Equal values may be shown once. Calls of active or inactive are those of the source.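 The calls were made as follows: active = curve reaches 40% activation over neutral controls at an AC40 no higher than the top valid tested concentration; inconclusive = no clear call, values can overlap the other calls; inactive = signal moving opposite to the expected increase, and the rest.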
Test system: INS-1E GLuc insulin secretion reporter, luminescence, 2-3 h
Test: activators of glucose-dependent insulin secretion, dose response, cell-based, INS-1E, Gaussia luciferase, luminescence, cherry-pick, set 2 (AID 977607)

Cc1ccccc1-c1ccc(C2[C@@H]3CN(S(=O)(=O)c4ccccc4C)C[C@H]2N3)cc1 (stereo not given in full)
AC40: 9.88 µM

COc1ccc(NC(=O)c2csc(C)c2)cc1OC
AC40: > 35 µM (inactive)

COc1ccc(C(=O)Nc2ccccc2C(=O)Nc2ccncc2)cc1
AC40: 0.413 µM

C(=C\c1ccc(C2[C@@H]3CN(Cc4nccs4)C[C@H]2N3)cc1)/c1ccccc1 (stereo not given in full)
AC40: 17 µM

O=C(Cn1c(COc2ccccc2)nc2ccccc21)Nc1cc(Cl)cc(Cl)c1
AC40: 10.9 µM

O=C1CC(Sc2nnc(-c3ccccc3)o2)C(=O)N1c1ccccc1 (stereo not given)
AC40: 12.1 µM

COc1ccc(N2CCN(c3ccc(NC(=O)C4CCCCC4)cc3C#N)CC2)cc1
AC40: 2.8 µM

N#Cc1c(N)n(C2CCCCC2)c2nc3ccccc3nc12
AC40: 18.9 µM

COc1cc(CN2[C@@H]3CNC[C@H]2C3c2ccc(/C=C/c3ccccc3)cc2)cc(OC)c1 (stereo not given in full)
AC40: 10.3 µM

COC(=O)c1ccc2c(=O)[nH]c(CSc3nc(-c4ccc(F)cc4)cs3)nc2c1
AC40: 5.86 µM

NS(=O)(=O)c1ccc(N=Cc2c(O)n(C3CCCCC3)c(=O)n(C3CCCCC3)c2=O)cc1
AC40: 16 µM

Cc1nn(-c2ccccc2)c2c1C(O)CC(C)(C)C2 (stereo not given)
AC40: 3.51 µM

CCn1nc(C)c(NC(=O)c2cnn3c(C(F)F)cc(-c4ccccc4)nc23)c1C
AC40: 3.84 µM

CCOc1ccc(-n2nnnc2-c2nc3ccccc3s2)cc1
AC40: 6.78 µM

O=C(CCN1CCOCC1)c1ccc2c(c1)OCCO2
AC40: 14.5 µM

Cc1ccc(C(=O)Oc2ccc(-c3nccc(-c4ccccn4)n3)cc2)cc1
AC40: 3.99 µM

CCS(=O)(=O)Nc1ccc(-c2cc(-c3ccccc3)c3cc(C)ccc3n2)cc1
AC40: 6.45 µM

NC(N)=N/N=C/c1ccc(N(c2ccccc2)c2ccccc2)cc1
AC40: 5.68 µM

CCC(=NC(C)c1ccccc1)c1c(O)[nH]c(=O)[nH]c1=O (stereo not given)
AC40: 11.1 µM

Cc1ccc2nc(Cl)nc(-c3ccccc3)c2c1
AC40: 12.2 µM

COc1ccc(/C=N/N(C(C)=O)c2nc(-c3ccc(C)cc3)cs2)cc1
AC40: 0.895 µM

COc1ccc(-c2ccc(SCc3ccccn3)nn2)cc1OC
AC40: 6.41 µM

CCOC(=O)c1oc2cc(O)cc(C)c2c1C
AC40: 15.1 µM

CCCCc1c(-c2ccccc2OC)ncn1CCc1ccccc1
AC40: 16.7 µM

Cc1ccc(CC2(OCCN(C)C)CCC(C(C)(C)C)CC2)cc1 (stereo not given)
AC40: 13.9 µM

O=C(Nc1ccc(C(F)(F)F)cc1)N1[C@@H]2CNC[C@H]1C2c1ccc(/C=C/c2ccccc2)cc1 (stereo not given in full)
AC40: 9.53 µM

CN(C)CCNC(=O)c1cccc(-c2cc(NC=O)c3ncc(-c4cccc(C(F)(F)F)c4)n3c2)c1
AC40: 24.4 µM

COc1ccc(CCN(C)C(=O)c2oc3ccccc3c2C)cc1OC
AC40: 7.06 µM

COCCNc1nc(Oc2cncc(Cl)c2)c2sccc2n1
AC40: 2.88 µM

Cc1ccc(S(=O)(=O)C=CS(=O)(=O)c2ccc(C)cc2)cc1
AC40: 0.224 µM

CN(Cc1c(C(=O)N/N=C/c2ccccc2O)nnn1-c1nonc1N)C1CCCCC1
AC40: 9.53 µM

COc1cc2c(cc1OC)/C(=C/C(=O)c1ccc(NC(C)=O)cc1)NCC2
AC40: 14.6 µM

CCC(C)c1ccccc1OCCCN(C)Cc1ccccc1 (stereo not given)
AC40: 7.97 µM

Cc1nnn(-c2nonc2N)c1C(=O)N/N=C/c1cccc2ccccc12
AC40: 7.29 µM

C[C@H]1CN([C@@H](C)CO)S(=O)(=O)c2ccc(C#Cc3ccccc3)cc2O[C@@H]1CN(C)C(=O)CN(C)C
AC40: 28 µM

COc1cccc(CN2C[C@@H]3N[C@H](C2)C3c2ccc(-c3ccccc3OC)cc2)c1 (stereo not given in full)
AC40: 7.9 µM

Cc1ccc(Oc2ncc(-c3ccc(Cl)cc3)cn2)cc1
AC40: 6.86 µM

CC(C)n1cc(/C(N)=N/O)c(=O)n(Cc2ccccc2)c1=O
AC40: 9.39 µM

CCN(CC)c1ccc(N=Cc2c(O)n(Cc3ccccc3)c(=O)[nH]c2=O)cc1
AC40: 11.3 µM

O=C(c1cccs1)c1coc2ccc(O)c(CN3CCOCC3)c12
AC40: > 35 µM (inactive)

Cc1cc(C)cc(OCCCN2CCC(C(O)(c3ccccc3)c3ccccc3)CC2)c1
AC40: 13 µM

CCOc1ccc(/C=N/NC(=O)c2cc(-c3ccco3)nc3ccccc23)cc1
AC40: 8.25 µM

Clc1ccc(-c2ccnc(Oc3ccc4ccccc4c3)n2)cc1
AC40: 8.45 µM

COc1ccc(-c2ccc(SCc3cccnc3)nn2)cc1OC
AC40: 0.451 µM

COc1nc(N2CCOCC2)nc(-n2cccc2)n1
AC40: 0.937 µM

Cc1c(C(=O)OCC(=O)N2CC(=O)Nc3ccccc32)oc2ccc(Br)cc12
AC40: 4.76 µM

Cc1ccc2c(Cl)c(C)c(N3CCCCC3)nc2n1
AC40: 11.5 µM

CCOC(=O)c1nc(SC)n(C)c1C(=O)OCC
AC40: 4.49 µM

N#Cc1cccc(Oc2ccc(-c3cnc4ccccc4n3)cc2)c1C#N
AC40: 13.1 µM

COc1cc2cnc(-c3ccsc3)cc2cc1OC
AC40: 0.826 µM

COc1ccc2c(c1)C(=NNC(=O)c1ccccn1)c1cc(OC)ccc1-2
AC40: 3.1 µM

CCCCCCCOC(=O)c1nc(Cl)c(Cl)c(N)c1Cl
AC40: 14.5 µM

COc1cc2cnc(-c3cccnc3)cc2cc1OC
AC40: 6.19 µM

C/C(Cl)=C/CSc1nc2c(c(=O)[nH]c(=O)n2C)n1C(C)C
AC40: 20 µM

COc1ccc(OC)c(-c2nnc3n2N=C(c2ccc(OC)c(OC)c2)CS3)c1
AC40: 0.564 µM

OC(c1ccccc1)(c1ccccc1)C1CCN(CCCOc2ccc3c(c2)CCCC3)CC1
AC40: 6.92 µM

N/C(=N\OC(=O)COc1ccc(Cl)cc1Cl)c1cccnc1
AC40: 29.8 µM

O=C(O)c1ccc(/C=N/n2c(C3CCCCC3)n[nH]c2=S)cc1
AC40: 5.87 µM

COc1ccc(C2=NN(c3ccc(C(=O)O)cc3)C(c3ccc(OC)c(OC)c3)C2)cc1 (stereo not given)
AC40: 4.29 µM

COc1cc2c(cc1OC)-c1cc(Nc3ccc(C)cc3)nc(=O)n1CC2
AC40: 11.8 µM

NC(N)=N/N=C/c1ccc(OCc2ccccc2)c(OCc2ccccc2)c1
AC40: 10.2 µM

FC(F)(F)c1cc(CCN2CCNC[C@@H]2c2ccccc2)cc(C(F)(F)F)c1
AC40: 6.96 µM

COc1ccc(C(C)NCCC(c2ccc(OC(C)C)cc2)c2ccccc2OC)cc1 (stereo not given)
AC40: 7.95 µM

CC(C)CSc1nc2c(c(=O)[nH]c(=O)n2C)n1CCc1ccccc1
AC40: 8.81 µM

CCOC(=O)c1cnc2c(Cl)c(Cl)ccc2c1NCCN1CCOCC1
AC40: > 35 µM (inactive)

CCOC(=O)c1cn(-c2ccccc2)nc1-c1ccncc1
AC40: 10.5 µM

Cc1ccc(/C=N/NC(=O)COc2ccccc2-c2ccccc2)cc1
AC40: 7.03 µM

O=S(=O)(c1ccccc1F)N1C[C@@H]2N[C@H](C1)C2c1ccc(/C=C/c2ccccc2)cc1 (stereo not given in full)
AC40: 6.46 µM

Oc1ccccc1-c1cc(C(F)(F)C(F)F)nc(-c2ccccc2)n1
AC40: 7.7 µM

CC(C)(C)c1cc(NCCCn2ccnc2)n2ncc(-c3ccc(Cl)cc3)c2n1
AC40: 6.19 µM

Cc1c(O)cnc2nn(-c3ccccc3)c(=N)n12
AC40: > 35 µM (inactive)

CN(C)CCOc1ccc(-c2c(-c3ccsc3)sc3ccccc23)cc1
AC40: 10.9 µM

N#Cc1nccnc1S(=O)(=O)c1cccs1
AC40: 0.467 µM

COc1ccc(CCNS(=O)(=O)c2cn(C)cn2)cc1OC
AC40: 4.84 µM

COc1ccc(S(=O)(=O)N2CCc3ccccc32)cc1C(=O)Nc1ccc(C(N)=O)cc1
AC40: 16.3 µM

Cc1ccc(-n2nc3ccc(NC(=O)c4ccco4)cc3n2)cc1
AC40: 10.8 µM

Cc1cc(Nc2ccc(Cl)cc2)nc(NCc2ccccc2)n1
AC40: 9.24 µM

CCOc1cc(/C=N/NC(=O)CCn2nc(C)cc2C)ccc1O
AC40: 8.04 µM

COC(=O)C1=C(C)N(Cc2cccc(C(F)(F)F)c2)C(=NCc2ccc(OC)cc2)NC1c1ccc(F)cc1 (stereo not given)
AC40: 15.5 µM

COc1ccc(S(=O)(=O)N2CCc3ccccc3C2)cc1OC
AC40: 28.9 µM

Cc1cccc(S(=O)(=O)N2C[C@@H]3N[C@H](C2)C3c2ccc(-c3ccccc3F)cc2)c1 (stereo not given in full)
AC40: 5.72 µM

COc1ccc(-c2nc(CCl)cs2)cc1OC
AC40: > 35 µM (inactive)

Oc1ccccc1C1SC(c2ccccc2O)SC(c2ccccc2O)S1 (stereo not given)
AC40: 6.08 µM

CN(C)CCNC(=O)c1cc2c(s1)-c1ccc(Cl)cc1SC2
AC40: 6.54 µM

COc1ccc(C2=Nn3c(nnc3-c3ccncc3)SC2)cc1OC
AC40: 13.3 µM

CCOC(=O)C1(C)CCCCN1C(=O)c1cccc(Cl)c1 (stereo not given)
AC40: > 35 µM (inactive)

Cc1cccc(-c2ccc(C3[C@@H]4CN(Cc5cccc(F)c5)C[C@H]3N4)cc2)c1 (stereo not given in full)
AC40: 12.3 µM and 2.97 µM

COc1ccc(-c2ccncc2)cc1OC
AC40: 13 µM

CC(C)C[C@H](NC(=O)c1[nH]cnc1C(=O)N[C@@H](C)c1ccccc1)C(=O)OC(C)(C)C
AC40: 31.3 µM

O=S(=O)(Nc1ccc(-c2ccc3nncn3n2)cc1)c1ccccc1Cl
AC40: 15.2 µM

CS(=O)(=O)c1ccc2nc(NC(=O)Nc3ccc(Cl)c(Cl)c3)sc2c1
AC40: 4.78 µM

OC[C@@H]1[C@@H](c2ccc(C#CC3CCCC3)cc2)[C@@H]2CN(CCC(F)(F)F)CCCCN12
AC40: 6.02 µM

COC(=O)C1=C(C)N(Cc2cccc(C(F)(F)F)c2)C(=NCc2ccc(C(F)(F)F)cc2)NC1c1ccccc1 (stereo not given)
AC40: 9.69 µM

COC(=O)c1cnn(-c2nc(-c3ccccc3)cs2)c1N
AC40: > 35 µM (inactive)

CC(C)(C)c1ccc(OCC(=O)Nc2ccc(-c3nc4cccnc4o3)cc2)cc1
AC40: 9.2 µM

Cc1ccc(C)c(OCC(=O)Nc2nonc2NC(=O)COc2cc(C)ccc2C)c1
AC40: 5.44 µM

Cc1nc(N)c(C#N)c(-c2cccnc2)c1C
AC40: 14.2 µM

CCCCCCN1C[C@H](n2cc(COC(=O)c3ccccc3)nn2)[C@@H](O)C[C@@H]1c1ccc(C)cc1
AC40: 6.42 µM

NS(=O)(=O)c1ccc(NC(=O)COC(=O)c2cn(-c3ccccc3)nc2-c2ccc(F)cc2)cc1
AC40: 4.82 µM

C/C=C/c1ccc(C2[C@H]3CNC[C@@H]2N3Cc2cc(-c3ccccc3)on2)cc1 (stereo not given in full)
AC40: 9.74 µM

CC(=O)Nc1cc(-c2cccc(C(=O)NCCN(C)C)c2)cn2c(-c3cccc(C(F)(F)F)c3)cnc12
AC40: 14.7 µM

Fc1cccc(CN2C[C@@H]3N[C@H](C2)[C@@H]3c2ccc(-c3cccc(F)c3)cc2)c1
AC40: 3.93 µM

CC(C)Sc1nc2c(c(=O)[nH]c(=O)n2C)n1Cc1ccc(Cl)cc1
AC40: 19.9 µM

CNC[C@@H](Cc1ccccc1)NC[C@@H](CC1CCCCC1)NCCCc1ccccc1
AC40: > 35 µM (inactive)

COc1ccccc1NC(=O)N1CCCCN2[C@@H](CO)[C@@H](c3ccc(C#CC4CCCC4)cc3)[C@@H]2C1
AC40: 16.5 µM

O=c1cc(-c2ccncc2)oc2c1ccc1ccccc12
AC40: 11.6 µM

CC(C)CC#Cc1ccc2c(c1)O[C@@H](CN(C)Cc1cccc(F)c1)[C@H](C)CN([C@@H](C)CO)S2(=O)=O
AC40: 7.13 µM

CC(C)(C)c1ccc(-c2cc(-c3ccccc3O)[nH]n2)cc1
AC40: 6.61 µM

O=C(Nc1ccc(Cl)c(Cl)c1)Nc1nc(-c2ccccc2)cs1
AC40: 4.71 µM

Fc1ccccc1-c1ccc(C2[C@@H]3CN(Cc4ccccc4)C[C@H]2N3)cc1 (stereo not given in full)
AC40: 7.05 µM

From PubChem BioAssay AID977607 (Broad Institute, 2014)
